pIC50: −log10 of the molar value.
What was measured:
Y470F-hDAT = biological target: T1, Y470F-hDAT (Homo sapiens, UniProt Q01959, Y470F); test: Competitive inhibition [3H]DA uptake assay in transfected PC12 cells; format: cell-based; details: SRI-20041 12.8 µM
T1 construct: synthetic cDNA encoding hDAT subcloned into pcDNA3.1 +; expressed in transfected cells; host or cells: PC12 cells (ATCC CRL-1721), transient, Lipofectamine 2000, pcDNA3.1+
Text: (§1) Results are presented as mean ± SEM, and n represents the number of independent experiments for each experiment group.

WT hDAT [1] = biological target: T2, WT hDAT (Homo sapiens, UniProt Q01959); test: as above; format: cell-based; set-up: synthetic cDNA encoding hDAT subcloned into pcDNA3.1 +; expressed in transfected cells; host or cells: PC12 cells (ATCC CRL-1721), transient, Lipofectamine 2000, pcDNA3.1+; details: SRI-20041 12.8 µM
T2 sequence (Q01959 whole entry): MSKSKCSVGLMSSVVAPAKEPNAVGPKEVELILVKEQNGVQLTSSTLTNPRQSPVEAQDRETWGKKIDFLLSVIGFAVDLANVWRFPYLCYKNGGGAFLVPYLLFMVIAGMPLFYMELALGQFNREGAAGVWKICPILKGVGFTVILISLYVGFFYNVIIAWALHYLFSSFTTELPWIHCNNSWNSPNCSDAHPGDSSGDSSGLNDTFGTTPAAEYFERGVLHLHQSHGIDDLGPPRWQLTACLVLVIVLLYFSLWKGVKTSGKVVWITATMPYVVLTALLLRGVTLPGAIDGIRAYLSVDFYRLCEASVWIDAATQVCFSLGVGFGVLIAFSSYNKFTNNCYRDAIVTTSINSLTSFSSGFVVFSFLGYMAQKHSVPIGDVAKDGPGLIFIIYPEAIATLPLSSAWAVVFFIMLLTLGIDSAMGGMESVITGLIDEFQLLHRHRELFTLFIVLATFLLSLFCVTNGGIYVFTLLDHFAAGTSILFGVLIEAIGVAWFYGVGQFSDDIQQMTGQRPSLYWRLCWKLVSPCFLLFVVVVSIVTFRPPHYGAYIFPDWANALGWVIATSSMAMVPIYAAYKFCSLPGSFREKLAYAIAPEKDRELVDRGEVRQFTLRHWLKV
Text: as §1

[2] = test system: DA uptake in rat synaptosomes; set-up: method as in PMID 25788711; details: read-out: Potency for inhibition of DA uptake; cited from earlier work
WT hDAT [3] = biological target: T2, WT hDAT; test: Tat-induced inhibition of specific [3H]WIN35,428 binding in CHO cells transfected with WT hDAT; set-up: synthetic cDNA encoding hDAT subcloned into pcDNA3.1 +; expressed in transfected cells; host or cells: CHO cells (ATCC CRL-61), transient, Lipofectamine 2000, pcDNA3.1+
Method: CHO cells transfected with WT hDAT were incubated with [^3H]WIN 35,428 (final concentration, 5 nM) with or without recombinant Tat1–86 (rTat1–86) (40 nM, final concentration) on ice for 2 h. […] Data for rTat1–86 and SRI-30827 + rTat1–86 are expressed as the percentage of their respective controls in the absence of rTat1–86 (15675 ± 2982 DPM) and SRI-30827 (14041 ± 3212 DPM) n = 5. *p < 0.05 compared with control value.
PC12 cells were maintained in the incubator (37 °C, 5% CO2) with DMEM medium supplemented with horse serum (15%) and bovine calf serum (2.5%), glutamine (2 mM), and penicillin-streptomycin (100 U/ml). Chinese hamster ovary cells (CHO cells, ATCC, CRL-61) were maintained in F12 medium with 10% fetal bovine serum and antibiotics (100 U/mL penicillin and 100 µg/mL streptomycin). For hDATs transfection, cells were seeded into poly-D-lysine-coated 24 well plates at a density of 1 × 10^5 cells/well. After 24 h, cells were transfected with WT or mutant DAT plasmids using Lipofectamine 2000 (Life Tech, Carlsbad, CA) based on the manufacturer’s instruction. Cells were used for the experiments after 24 h of transfection.

T1 sequence (Q01959 whole entry Y470F): as the sequence (Q01959 whole entry) above, with Y470F counted along it

c1ccc(-c2nc(NCCC(c3ccccc3)c3ccccc3)c3ccccc3n2)cc1 [SRI-20041]
Increase of cocaine IC50 of [3H]DA uptake (Y470F-hDAT): ~ 40% | Increase of cocaine IC50 of [3H]DA uptake (WT hDAT [1]): ~ 35%

Cc1cc2nccn2cc1-c1nc(NCC(c2ccccc2)c2ccccc2)c2ccccc2n1 [SRI-30827]
pIC50 [2]: 9.30 | Effect on the specific [3H]WIN35,428 binding (WT hDAT [3]; SRI-30827 50 nM alone): did not alter | Specific [3H]WIN35,428 binding (WT hDAT [3]; SRI-30827 50 nM in the absence of rTat1–86, CHO cells, n = 5): 14041 ± 3212 DPM
